Source: BindingDB's records for patent US20260022118 (University of Texas System, 2026)
pKd: −log10 of the molar value.

Biological target: GTPase NRas [G12D,C118S] (Homo sapiens, UniProt P01111, C118S/G12D)
Test: NRas G12D Surface Plasmon Resonance (SPR) Binding Assay
Procedure: The assay was run at 25° C. with a data collection rate of 10 Hz. All samples were flowed over both a reference surface and an active surface. Samples were injected for 30 s, with a dissociation time length of 120 s, at a flow rate of 100 μL/min and followed by an extra wash with 50% DMSO and a carry-over control injected at 40 μL/min for 30 s. Ten startup cycles were performed at the beginning of the assay. Solvent correction samples were injected once in the middle of the assay, and once at the end. A control sample of 10 μM control compound was injected between two negative control injections (1.0× running buffer containing 3% DMSO) every thirty cycles, to periodically assess NRAS surface stability. Assay was allowed to run for approximately 20-24 hours due to loss of activity of the protein surface over time. Data was analyzed using the Biacore™ S200 Evaluation Software, and all data was fit using a 1:1 kinetic binding model or steady-state fitting, as appropriate.

Chain of GTPase NRas [G12D,C118S] (P01111 whole entry G12D/C118S, looked up): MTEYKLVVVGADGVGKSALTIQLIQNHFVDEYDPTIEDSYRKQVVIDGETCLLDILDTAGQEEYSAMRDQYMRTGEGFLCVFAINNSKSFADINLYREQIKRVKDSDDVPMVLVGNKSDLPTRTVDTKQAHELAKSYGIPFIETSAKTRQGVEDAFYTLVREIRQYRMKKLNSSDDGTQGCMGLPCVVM

## C#Cc1c(F)ccc2cc(O)cc(-c3nc(C(C)=O)c4c([C@H]5[C@@H]6CNC[C@@H]65)nn(C5CC5)c4c3F)c12 [US20260022118, Example 84]
  pKd: 6.92
